Measured values taken from US6825233B2, “Compounds having retinoid-like activity” (Bristol-Myers Squibb Company, priority 2001, dated 2004).
Like-named read-outs stand apart in the source and are kept apart here.

How the values were obtained:
[1] = target: T1, RARα (Homo sapiens, UniProt P10276); assay: Competition binding assay using Yttrium SPA beads, RARα
T1 construct: made in house; host or cells: E. coli BL21 (DE3)
T1 sequence (P10276 183-417 limits assumed): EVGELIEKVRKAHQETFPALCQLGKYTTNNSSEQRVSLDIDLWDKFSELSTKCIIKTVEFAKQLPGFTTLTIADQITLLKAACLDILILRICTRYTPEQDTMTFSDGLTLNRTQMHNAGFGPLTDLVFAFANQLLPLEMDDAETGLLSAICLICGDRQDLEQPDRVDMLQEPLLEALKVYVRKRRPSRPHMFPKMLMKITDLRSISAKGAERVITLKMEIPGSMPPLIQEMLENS

[2] = target: T2, RARβ (Homo sapiens, UniProt P10826); assay: Competition binding assay using Yttrium SPA beads, RARβ
T2 construct: made in house; host or cells: E. coli BL21 (DE3)
T2 sequence (P10826 183-417 limits assumed): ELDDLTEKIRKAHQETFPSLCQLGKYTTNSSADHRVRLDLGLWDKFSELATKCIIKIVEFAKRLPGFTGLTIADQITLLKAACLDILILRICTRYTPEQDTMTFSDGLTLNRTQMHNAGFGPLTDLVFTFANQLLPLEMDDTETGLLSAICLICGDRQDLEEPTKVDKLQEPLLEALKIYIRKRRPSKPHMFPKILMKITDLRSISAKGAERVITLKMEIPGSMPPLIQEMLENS

[3] = target: T3, RARγ (Homo sapiens, UniProt P13631); assay: Competition binding assay using Yttrium SPA beads, RARγ
T3 construct: made in house; host or cells: E. coli BL21 (DE3)
T3 sequence (P13631 185-419 limits assumed): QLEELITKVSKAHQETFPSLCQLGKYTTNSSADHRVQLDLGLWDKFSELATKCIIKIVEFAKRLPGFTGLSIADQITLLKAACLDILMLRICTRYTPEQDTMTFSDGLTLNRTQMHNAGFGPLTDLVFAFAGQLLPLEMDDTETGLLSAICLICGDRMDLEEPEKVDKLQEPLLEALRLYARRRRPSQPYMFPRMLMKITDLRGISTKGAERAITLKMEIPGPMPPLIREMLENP

[4] = target: T4, GAL-RARα (Homo sapiens, UniProt P10276); assay: Transactivation assay, HeLa cells with GAL-RARα and (17 mer)x5-Glob-Luc reporter; format: cell-based; settings: stable HeLa cell line, luciferase reporter, 24 hours
T4 construct: expressed in transfected cells
T4 sequence (P10276 183-417 limits assumed): T1 sequence (P10276 183-417 limits assumed)

[5] = target: T5, GAL-RARβ (Homo sapiens, UniProt P10826); assay: Transactivation assay, HeLa cells with GAL-RARβ and (17 mer)x5-Glob-Luc reporter; format: cell-based; settings: stable HeLa cell line, luciferase reporter, 24 hours
T5 construct: expressed in transfected cells
T5 sequence (P10826 183-417 limits assumed): T2 sequence (P10826 183-417 limits assumed)

[6] = target: T6, GAL-RARγ (Homo sapiens, UniProt P13631); assay: Transactivation assay, HeLa cells with GAL-RARγ and (17 mer)x5-Glob-Luc reporter; format: cell-based; settings: stable HeLa cell line, luciferase reporter, 24 hours
T6 construct: expressed in transfected cells
T6 sequence (P13631 185-419 limits assumed): T3 sequence (P13631 185-419 limits assumed)

[7] = test system: T47D; assay: Growth assay, [3H]-thymidine incorporation, T47D; format: cell-based; settings: Homo sapiens, T47D cells, 3 or 6 days incubation, read-out: Cell Growth Inhibition (IC50, nM) T47D
Description: (§1) Principle of the assay: The proliferation of the cells was measured by the incorporation of [^3H]-Thymidine in the DNA of dividing cells.
(§2) Protocol: The number of cells which was plated has been primarily defined to avoid the cells reaching confluence before the end of the experiment duration (T47D & HT3, 750 cells/well; H3396, 200 cells/well of 96 well plates). The first day, the cells were plated in 96 well plates and incubated overnight at 37° C. (in […]; CO2, 5%), allowing the cells adhering to the support. The next day, the compounds were added to the cells and incubated for 3 or 6 days (note: for the 6-day incubation, the medium was replaced at Day3). At the end of the treatment, 10 μl of [^3H]-thymidine (final concentration of 0.4 μCi/well) were added for 4 hours at 37° C., the medium was finally removed, the cells trypsinized and harvested under vacuum on GF/B glass fiber filters. After 3 washes with distilled water, the filter were dried and counted in a scintillation counter after adding 50 μl of Microscint (Packard) to each filter. The percentage of growth inhibition was calculated by using DMSO as reference, which is the vehicle of the compounds. Growth inhibition is reported as IC50's in nM

[8] = test system: HT3; assay: Growth assay, [3H]-thymidine incorporation, HT3; format: cell-based; settings: Homo sapiens
Description: as §1, §2

[9] = HT-3, HT3 cells, [3H]-thymidine incorporation, 3 or 6 days incubation, read-out: Cell Growth Inhibition (IC50, nM) HT3

Kd [1] [nM]	Kd [2] [nM]	Kd [3] [nM]	EC50 [4] [nM]	EC50 [5] [nM]	EC50 [6] [nM]	IC50 [7] [nM]	Structure (SMILES)	IC50 [8, 9] [nM]	IC50 ([8]; HT-3, read-out: Cell Growth Inhibition (IC50, nM) HT3) [nM]
1.1	1.6	10.6	0.02	0.005	1.9	< 0.01	COc1ccc2c(c1)-c1cc(/C=C/c3ccc(C(=O)O)cc3)ccc1C(C)(C)C2 [Compound 10]	< 0.01	
8.3	18.6	52.8	13.5	1.76	47	4.8	CC1(C)Cc2ccc(O)cc2-c2cc(/C=C/c3ccc(C(=O)O)cc3)ccc21 [Compound 8]	1160	

Structure (SMILES)	Kd [1] [nM]	Kd [2] [nM]	Kd [3] [nM]	EC50 [4] [nM]	EC50 [5] [nM]	EC50 [6] [nM]	IC50 [7] [nM]	IC50 [8, 9] [nM]	IC50 ([8]; HT-3, read-out: Cell Growth Inhibition (IC50, nM) HT3) [nM]
CC1=C(/C=C/C(C)=C/C=C/C(C)=C/C(=O)O)C(C)(C)CCC1 [Retinoic acid, reference compound]							6.5		1
